Results as given in patent US20060069132A1, “Azolecarboxamide herbicides” (priority 2004, published 2006).

How the values were obtained:
[1] = test system: small flower umbrella sedge; experiment: Test B flooded paddy test; assay type: in vivo, Cyperus difformis; details: 1000 g ai/ha, scale 0 to 100 (0 no effect, 100 complete control)
Summary of the method: (§1)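 Read-out: visual comparison with controls, scored 0 to 100, where 100 means complete control and 0 no effect. Formulated chemicals were applied postemergence to plants 2–18 cm tall (1- to 4-leaf), or to flooded-paddy plants at the 2-leaf stage, then held 13 to 15 days under glass.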

[2] = test system: blackgrass; experiment: Test B postemergence herbicide test; assay type: in vivo, Alopecurus myosuroides
Summary of the method: as §1

[3] = test system: wheat; experiment: Test B postemergence herbicide test; assay type: in vivo, Triticum aestivum; design: key to Wheat plant response rating: 0 = no effect, 100 = complete control
Summary of the method: (§2)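 Postemergence plants were sprayed with formulated test chemicals at 2 to 18 cm height (1- to 4-leaf stage); paddy species were grown to the 2-leaf stage. After 13 to 15 days in a greenhouse, injury was rated visually against untreated controls on a 0–100 scale (0 = no effect, 100 = complete control).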

[4] = test system: large crabgrass; experiment: Test B pre-/postemergence herbicide test; assay type: in vivo, Digitaria sanguinalis
Summary of the method: (§3)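 Seeds were planted and treated preemergence with compounds formulated in a non-phytotoxic solvent mixture containing surfactant, while plants at the 1- to 4-leaf stage (2 to 18 cm) received postemergence sprays. Flooded paddy plants were grown to the 2-leaf stage. After 13 to 15 days in a greenhouse, injury was visually rated 0–100 against untreated controls.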

[5] = test system: lambsquarters; experiment: Test B pre-/postemergence herbicide test; assay type: in vivo, Chenopodium album
Summary of the method: as §3

[6] = test system: corn; experiment: Test B pre-/postemergence herbicide test; assay type: in vivo, Zea mays
Summary of the method: as §3

[7] = test system: giant foxtail; experiment: Test B pre-/postemergence herbicide test; assay type: in vivo, Setaria faberi
Summary of the method: as §3

[8] = test system: barnyardgrass; experiment: Test B flooded paddy test; assay type: in vivo, Echinochloa crus-galli; details: 1000 g ai/ha, scale 0 to 100 (0 no effect, 100 complete control)
Summary of the method: as §1

[9] = test system: Surinam grass; experiment: Test B pre-/postemergence herbicide test; assay type: in vivo, Urochloa decumbens
Summary of the method: as §3

[10] = test system: cocklebur; experiment: Test B pre-/postemergence herbicide test; assay type: in vivo, Xanthium strumarium
Summary of the method: (§4)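 Pre: seeds sown, then sprayed. Post: 1–4-leaf plants (2–18 cm) sprayed at the same time. Paddy: flooded, treated at 2-leaf stage. Formulation: non-phytotoxic solvent with surfactant. Greenhouse 13–15 days; visual 0–100 score relative to controls.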

[11] = test system: rice; experiment: Test B flooded paddy test; assay type: in vivo, Oryza sativa; details: 1000 g ai/ha, scale 0 to 100 (0 no effect, 100 complete control)
Summary of the method: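 Visual ratings, 0 (no effect) to 100 (complete control), made versus controls after 13–15 d greenhouse. Paddy plants treated at 2-leaf stage; postemergence plants at 1- to 4-leaf stage, 2–18 cm tall.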

[12] = test system: morningglory; experiment: Test B pre-/postemergence herbicide test; assay type: in vivo, Ipomoea coccinea
Summary of the method: as §4

[13] = test system: wild oat; experiment: Test B postemergence herbicide test; assay type: in vivo, Avena fatua
Summary of the method: as §2

[14] = test system: pigweed; experiment: Test B pre-/postemergence herbicide test; assay type: in vivo, Amaranthus retroflexus
Summary of the method: as §3

[15] = test system: barnyardgrass; experiment: Test B pre-/postemergence herbicide test; assay type: in vivo, Echinochloa crus-galli
Summary of the method: as §4

[16] = test system: ducksalad; experiment: Test B flooded paddy test; assay type: in vivo, Heteranthera limosa; details: 1000 g ai/ha, scale 0 to 100 (0 no effect, 100 complete control)
Summary of the method: as §1

[17] = 125 g ai/ha; visual rating, scale 0 (no effect) to 100 (complete control); postemergence
[18] = postemergence, 500 g ai/ha; scale 0 to 100, 0 is no effect, 100 is complete control
[19] = 125 g ai/ha, 0 = no effect, 100 = complete control, preemergence
[20] = 125 g ai/ha, visual rating, scale 0 (no effect) to 100 (complete control), postemergence
[21] = 500 g ai/ha, visual rating, 0 = no effect, 100 = complete control, preemergence
[22] = postemergence, 500 g ai/ha, scale 0 to 100, 0 is no effect, 100 is complete control
[23] = Postemergence, 500 g ai/ha; visual rating after 13 to 15 days, scale 0 (no effect) to 100 (complete control)
[24] = postemergence, 125 g ai/ha; visual rating, scale 0 (no effect) to 100 (complete control)
[25] = Postemergence, 500 g ai/ha, visual rating after 13 to 15 days, scale 0 (no effect) to 100 (complete control)
[26] = Preemergence, 500 g ai/ha, scale 0 to 100
[27] = postemergence, 125 g ai/ha, visual rating, scale 0 (no effect) to 100 (complete control)
[28] = preemergence, 125 g ai/ha, 0 to 100 scale, 0 is no effect, 100 is complete control
[29] = postemergence, 500 g ai/ha; visual rating, scale 0 (no effect) to 100 (complete control)
[30] = postemergence, 500 g ai/ha, visual rating, scale 0 (no effect) to 100 (complete control)

## CCOC(=O)c1cccc(NC(=O)c2cc(C(C)(C)C)nn2C)n1 [Compound 313]
[1]
  Sedge, Umbrella plant response rating: 80
[2]; [17]
  Blackgrass plant response rating: 0
[2]; [18]
  Blackgrass plant response rating: 10
[3]; [17]
  Wheat plant response rating: 0
[3]; [18]
  Wheat plant response rating: 10
[4]; [19]
  Crabgrass, Large plant response rating (0 to 100 scale): 30
[4]; [20]
  Crabgrass, Large plant response rating: 10
[4]; [21]
  Plant response rating, Crabgrass, Large: 90
[4]; [22]
  Crabgrass, Large plant response rating: 20
[5]; [19]
  Lambsquarters plant response rating (0 to 100 scale): 100
[5]; [20]
  Lambsquarters plant response rating: 60
[5]; [21]
  Plant response rating, Lambsquarters: 100
[5]; [22]
  Lambsquarters plant response rating: 90
[6]; [19]
  Corn plant response rating (0 to 100 scale): 10
[6]; [20]
  Corn plant response rating: 10
[6]; [21]
  Plant response rating, Corn: 30
[6]; [22]
  Corn plant response rating: 20
[7]; [19]
  Foxtail, Giant plant response rating (0 to 100 scale): 40
[7]; [20]
  Foxtail, Giant plant response rating: 20
[7]; [21]
  Plant response rating, Foxtail, Giant: 100
[7]; [22]
  Foxtail, Giant plant response rating: 50
[8]
  Barnyardgrass plant response rating: 70
[9]; [19]
  Surinam Grass plant response rating (0 to 100 scale): 30
[9]; [20]
  Surinam Grass plant response rating: 10
[9]; [21]
  Plant response rating, Surinam Grass: 80
[9]; [22]
  Surinam Grass plant response rating: 20
[10]; [19]
  Cocklebur plant response rating (0 to 100 scale): 0
[10]; [20]
  Cocklebur plant response rating: 0
[10]; [21]
  Plant response rating, Cocklebur: 10
[10]; [22]
  Cocklebur plant response rating: 90
[11]
  Rice plant response rating: 80
[12]; [19]
  Morningglory plant response rating (0 to 100 scale): 10
[12]; [20]
  Morningglory plant response rating: 0
[12]; [21]
  Plant response rating, Morningglory: 40
[12]; [22]
  Morningglory plant response rating: 80
[13]; [17]
  Oat, Wild plant response rating: 20
[13]; [18]
  Oat, Wild plant response rating: 30
[14]; [19]
  Pigweed plant response rating (0 to 100 scale): 100
[14]; [20]
  Pigweed plant response rating: 60
[14]; [21]
  Plant response rating, Pigweed: 100
[14]; [22]
  Pigweed plant response rating: 70
[15]; [19]
  Barnyardgrass plant response rating (0 to 100 scale): 80
[15]; [20]
  Barnyardgrass plant response rating: 30
[15]; [21]
  Plant response rating, Barnyardgrass: 90
[15]; [22]
  Barnyardgrass plant response rating: 50
[16]
  Ducksalad plant response rating: 80

## C#CCn1nc(C(C)(C)C)cc1C(=O)Nc1cccc(C(=O)NCC)c1 [Compound 50]
[1]; visual rating, 13 to 15 days
  Sedge, Umbrella plant response rating: 80
[2]; [23]
  Plant response rating, Blackgrass: 30
[2]; [24]
  Blackgrass plant response rating: 20
[3]; [23]
  Plant response rating, Wheat: 30
[3]; [24]
  Wheat plant response rating: 30
[4]; [25]
  Plant response rating, Crabgrass, Large: 30
[4]; [26]
  Crabgrass, Large plant response rating: 90
[4]; [27]
  Crabgrass, Large plant response rating: 10
[4]; [28]
  Plant response rating, Crabgrass, Large: 30
[5]; [25]
  Plant response rating, Lambsquarters: 90
[5]; [26]
  Lambsquarters plant response rating: 100
[5]; [27]
  Lambsquarters plant response rating: 80
[5]; [28]
  Plant response rating, Lambsquarters: 90
[6]; [25]
  Plant response rating, Corn: 40
[6]; [26]
  Corn plant response rating: 10
[6]; [27]
  Corn plant response rating: 30
[6]; [28]
  Plant response rating, Corn: 0
[7]; [25]
  Plant response rating, Foxtail, Giant: 30
[7]; [26]
  Foxtail, Giant plant response rating: 100
[7]; [27]
  Foxtail, Giant plant response rating: 30
[7]; [28]
  Plant response rating, Foxtail, Giant: 20
[8]; visual rating, 13 to 15 days
  Barnyardgrass plant response rating: 70
[9]; [25]
  Plant response rating, Surinam Grass: 40
[9]; [26]
  Surinam Grass plant response rating: 50
[9]; [27]
  Surinam Grass plant response rating: 30
[9]; [28]
  Plant response rating, Surinam Grass: 20
[10]; [25]
  Plant response rating, Cocklebur: 90
[10]; [26]
  Cocklebur plant response rating: 0
[10]; [27]
  Cocklebur plant response rating: 90
[10]; [28]
  Plant response rating, Cocklebur: 0
[11]; visual rating, 13 to 15 days
  Rice plant response rating: 60
[12]; [25]
  Plant response rating, Morningglory: 70
[12]; [26]
  Morningglory plant response rating: 40
[12]; [27]
  Morningglory plant response rating: 70
[12]; [28]
  Plant response rating, Morningglory: 10
[13]; [23]
  Plant response rating, Oat, Wild: 20
[13]; [24]
  Oat, Wild plant response rating: 20
[14]; [25]
  Plant response rating, Pigweed: 100
[14]; [26]
  Pigweed plant response rating: 100
[14]; [27]
  Pigweed plant response rating: 80
[14]; [28]
  Plant response rating, Pigweed: 100
[15]; [25]
  Plant response rating, Barnyardgrass: 70
[15]; [26]
  Barnyardgrass plant response rating: 80
[15]; [27]
  Barnyardgrass plant response rating: 50
[15]; [28]
  Plant response rating, Barnyardgrass: 40
[16]; visual rating, 13 to 15 days
  Ducksalad plant response rating: 70

## CCNC(=O)c1cccc(NC(=O)c2sc(C(C)(C)C)nc2CC)n1 [Compound 213]
[1]; visual rating, 13 to 15 days
  Sedge, Umbrella plant response rating: 80
[2]; [24]
  Blackgrass plant response rating: 20
[2]; [29]
  Blackgrass plant response rating: 40
[3]; [24]
  Wheat plant response rating: 0
[3]; [29]
  Wheat plant response rating: 30
[4]; [19]
  Crabgrass, Large plant response rating (0 to 100 scale): 10
[4]; [21]
  Plant response rating, Crabgrass, Large: 70
[4]; [27]
  Crabgrass, Large plant response rating: 0
[4]; [30]
  Crabgrass, Large plant response rating: 30
[5]; [19]
  Lambsquarters plant response rating (0 to 100 scale): 30
[5]; [21]
  Plant response rating, Lambsquarters: 100
[5]; [27]
  Lambsquarters plant response rating: 0
[5]; [30]
  Lambsquarters plant response rating: 40
[6]; [19]
  Corn plant response rating (0 to 100 scale): 0
[6]; [21]
  Plant response rating, Corn: 10
[6]; [27]
  Corn plant response rating: 0
[6]; [30]
  Corn plant response rating: 20
[7]; [19]
  Foxtail, Giant plant response rating (0 to 100 scale): 20
[7]; [21]
  Plant response rating, Foxtail, Giant: 90
[7]; [27]
  Foxtail, Giant plant response rating: 0
[7]; [30]
  Foxtail, Giant plant response rating: 30
[8]; visual rating, 13 to 15 days
  Barnyardgrass plant response rating: 60
[9]; [19]
  Surinam Grass plant response rating (0 to 100 scale): 0
[9]; [21]
  Plant response rating, Surinam Grass: 40
[9]; [27]
  Surinam Grass plant response rating: 10
[9]; [30]
  Surinam Grass plant response rating: 20
[10]; [19]
  Cocklebur plant response rating (0 to 100 scale): 0
[10]; [21]
  Plant response rating, Cocklebur: 0
[10]; [27]
  Cocklebur plant response rating: 0
[10]; [30]
  Cocklebur plant response rating: 70
[11]; visual rating, 13 to 15 days
  Rice plant response rating: 40
[12]; [19]
  Morningglory plant response rating (0 to 100 scale): 0
[12]; [21]
  Plant response rating, Morningglory: 20
[12]; [27]
  Morningglory plant response rating: 10
[12]; [30]
  Morningglory plant response rating: 30
[13]; [24]
  Oat, Wild plant response rating: 10
[13]; [29]
  Oat, Wild plant response rating: 20
[14]; [19]
  Pigweed plant response rating (0 to 100 scale): 30
[14]; [21]
  Plant response rating, Pigweed: 100
[14]; [27]
  Pigweed plant response rating: 0
[14]; [30]
  Pigweed plant response rating: 20
[15]; [19]
  Barnyardgrass plant response rating (0 to 100 scale): 10
[15]; [21]
  Plant response rating, Barnyardgrass: 80
[15]; [27]
  Barnyardgrass plant response rating: 0
[15]; [30]
  Barnyardgrass plant response rating: 50
[16]; visual rating, 13 to 15 days
  Ducksalad plant response rating: 70
